Assay: mn = molality of the nth substance listed, in mol/kg
Conditions: 298.15 K, 101.3 kPa, Liquid, Frequency=0.0002 MHz, Alternating current cell with electrodes

CCCCCCCCCCCCOS(=O)(=O)[O-].[Na+] [sodium dodecyl sulfate] + O
Conditions | electrical conductivity [S/m]
m1 = 0.001 | 0.0071
m1 = 0.00201 | 0.0137
m1 = 0.00301 | 0.0209
m1 = 0.00401 | 0.0275
m1 = 0.00501 | 0.034
m1 = 0.00602 | 0.041

C[C@H](CCC(=O)[O-])[C@H]1CC[C@H]2[C@@H]3[C@H](O)C[C@@H]4C[C@H](O)CC[C@]4(C)[C@H]3C[C@H](O)[C@]12C.[Na+] [sodium cholate] + O
Conditions | electrical conductivity [S/m]
m1 = 0.00042 | 0.0033
m1 = 0.00083 | 0.0062
m1 = 0.00124 | 0.009
m1 = 0.00164 | 0.0118
m1 = 0.00205 | 0.0144
m1 = 0.00245 | 0.0171
m1 = 0.00284 | 0.0197
m1 = 0.00324 | 0.0225
m1 = 0.00363 | 0.025
m1 = 0.00401 | 0.0275
m1 = 0.0044 | 0.0299
m1 = 0.00478 | 0.0322
m1 = 0.00516 | 0.0345
m1 = 0.00553 | 0.0366
m1 = 0.0059 | 0.0388
m1 = 0.00627 | 0.0409
m1 = 0.00664 | 0.043
m1 = 0.007 | 0.0451
m1 = 0.00736 | 0.0473
m1 = 0.00772 | 0.0493
m1 = 0.00807 | 0.0512
m1 = 0.00842 | 0.0532
m1 = 0.00877 | 0.0553
m1 = 0.00912 | 0.0573
m1 = 0.00946 | 0.0591
m1 = 0.00981 | 0.061
m1 = 0.01015 | 0.063
m1 = 0.01048 | 0.0649
m1 = 0.01082 | 0.0668
m1 = 0.01115 | 0.0687
m1 = 0.01148 | 0.0706
m1 = 0.0118 | 0.0724
m1 = 0.01213 | 0.0743
m1 = 0.01245 | 0.0762
m1 = 0.01277 | 0.078
m1 = 0.01309 | 0.0798
m1 = 0.0134 | 0.0816
m1 = 0.01371 | 0.0834
m1 = 0.01402 | 0.0853
m1 = 0.01433 | 0.0871
m1 = 0.01464 | 0.0889
m1 = 0.01494 | 0.0906
m1 = 0.01524 | 0.0924
m1 = 0.01554 | 0.0942
m1 = 0.01584 | 0.0959
m1 = 0.01614 | 0.0976
m1 = 0.01643 | 0.0993
m1 = 0.01672 | 0.101
m1 = 0.01701 | 0.103
m1 = 0.0173 | 0.104
